From patent US10301304B2, “Selective inhibitor of phosphatidylinositol 3-kinase-gamma” (VERTEX PHARMACEUTICALS INCORPORATED, priority 2013, dated 2019)
Read-outs that look alike come from different tables or passages of the source.

Tests used:
[1] = test system: MCP-1 stimulated pAkt in THP-1 cells (PI3K-gamma); assay: MCP-1 Stimulated pAkt in THP-1 Cells; assay type: cell-based; details: Homo sapiens
Experimental: Chemokines like MCP-1 bind to their receptors resulting in activation of the PI3K-gamma signaling pathway. PI3K-gamma leads to generation of PIP3 and activation of downstream molecules like PDK-1 and Akt. Akt phosphorylation is a measure of PI3K activity in the cell. In this assay, THP-1 cells (human monocytic cell line) are starved overnight to deplete pAkt levels. Subsequent stimulation with MCP-1 for 3 minutes leads to PI3K-gamma-induced phoshorylation of Akt at the Threonin 308 and Serine 473 sites. Cells were fixed and stained for intracellular phosphoAKT (Ser 473) then analyzed using a BD FACSCalibur™ cytometer resulting in a measure of cellular PI3K-gamma activity.

[2] = test system: CSF-1 stimulated pAkt in THP-1 cells (PI3Kα/β/δ); assay: CSF-1 Stimulated pAkt in THP-1 Cells; assay type: cell-based; details: Homo sapiens; THP-1/CSF-1/pAkt, PI3K-alpha/beta/delta dependent; read-out: IC50 Avg +/− SD
Experimental: Growth factors, cytokines and other ligands of receptor tyrosine kinases, like CSF1, bind to their receptors leading to activation of the class IA PI3K signaling pathway. PI3K activation leads to generation of PIP3 and activation of downstream molecules like PDK-1 and Akt. Akt phosphorylation is a measure of PI3K activity in the cell. THP-1 cells (a human monocytic cell line) are starved overnight to deplete pAkt levels. Stimulation with CSF-1 for 5 minutes leads to PI3Kα/β/δ induced phoshorylation of Akt at the Threonine 308 and Serine 473 sites. Cells were fixed and stained for intracellular phosphoAkt (Ser 473) then analyzed on the BD FACSCalibur™ cytometer. This is a measure of cellular Class IA PI3K inhibition.

[3] = test system: MCF7 cells; assay: MCF-7 Proliferation Assay; assay type: cell-based, human; details: for IC50: Homo sapiens
Experimental: The PI3K-Akt signaling pathway regulates many normal cellular processes including cell proliferation, survival and growth that are critical for tumorigenesis. Dysregulation of the PI3K signaling pathway occurs commonly in human cancers. MCF7 is a human breast carcinoma cell line that has an activating E545K PI3Kα heterozygous mutation in the helical domain of the p110α protein leading to hyperactivity of the PI3K-alpha pathway. […] Compounds are added to MCF7 cells, cell proliferation/viability is measured 96 hours post compound treatment using cell titer-glo to measure the ATP content of the cells in the well. Lack of or reduced proliferation is a measure of the extent of PI3K-alpha inhibition.

[4] = target: T1, pregnane-X receptor (PXR) (Homo sapiens, UniProt O75469); assay: PXR activation in DPX2 cells; assay type: in vitro ADME
T1 construct: expressed in transfected cells; host or cells: DPX2 cells (human hepatoma cell line)
T1 sequence (O75469 whole entry): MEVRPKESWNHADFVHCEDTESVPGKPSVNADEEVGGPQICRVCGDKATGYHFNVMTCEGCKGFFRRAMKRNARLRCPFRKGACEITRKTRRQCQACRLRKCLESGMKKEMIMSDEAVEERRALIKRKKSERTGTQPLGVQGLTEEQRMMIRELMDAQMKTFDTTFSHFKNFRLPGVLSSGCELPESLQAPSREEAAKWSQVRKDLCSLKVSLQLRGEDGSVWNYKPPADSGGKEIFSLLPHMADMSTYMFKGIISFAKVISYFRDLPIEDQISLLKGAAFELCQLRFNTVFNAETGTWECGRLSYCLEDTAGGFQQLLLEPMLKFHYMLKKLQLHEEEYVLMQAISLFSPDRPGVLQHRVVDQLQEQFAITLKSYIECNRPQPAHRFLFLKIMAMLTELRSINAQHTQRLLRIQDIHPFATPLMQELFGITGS
Experimental: The potential of Compound 1 to activate the pregnane-X receptor (PXR) was evaluated over a range of six concentrations from 0.1-30 μM in DPX2 cells, a human hepatoma cell line that is stably overexpressed with the human PXR gene and a luciferase reporter gene linked to two promoters in the human CYP3A4 gene. Rifampicin was used as a positive control.

[5] = Intravenous bolus pharmacokinetics; assay type: in vivo, Rat; details: for AUC: rat, iv, 0.5 mg/kg
From the text: (§1) Following intravenous administration of a single bolus dose, Compound 1 had low systemic clearance and a long half-life in all species tested. […] The volume of distribution was greater than the total body water, indicating distribution of Compound 1 to tissues.

[6] = Intravenous bolus pharmacokinetics; assay type: in vivo; details: single IV bolus; for AUC / AUC(0-inf) / clearance / half-life / Vd: in vivo; for Vd: read-out: Vss
From the text: as §1

[7] = target: CYP1A2 (Homo sapiens, UniProt P05177); assay: Inhibition of CYP Enzymes in Human Liver Microsomes; assay type: in vitro ADME; design: from tissue; host or cells: human liver microsomes; details: CYP1A2, 30 μM Phenacetin
CYP1A2, sequence (P05177 whole entry): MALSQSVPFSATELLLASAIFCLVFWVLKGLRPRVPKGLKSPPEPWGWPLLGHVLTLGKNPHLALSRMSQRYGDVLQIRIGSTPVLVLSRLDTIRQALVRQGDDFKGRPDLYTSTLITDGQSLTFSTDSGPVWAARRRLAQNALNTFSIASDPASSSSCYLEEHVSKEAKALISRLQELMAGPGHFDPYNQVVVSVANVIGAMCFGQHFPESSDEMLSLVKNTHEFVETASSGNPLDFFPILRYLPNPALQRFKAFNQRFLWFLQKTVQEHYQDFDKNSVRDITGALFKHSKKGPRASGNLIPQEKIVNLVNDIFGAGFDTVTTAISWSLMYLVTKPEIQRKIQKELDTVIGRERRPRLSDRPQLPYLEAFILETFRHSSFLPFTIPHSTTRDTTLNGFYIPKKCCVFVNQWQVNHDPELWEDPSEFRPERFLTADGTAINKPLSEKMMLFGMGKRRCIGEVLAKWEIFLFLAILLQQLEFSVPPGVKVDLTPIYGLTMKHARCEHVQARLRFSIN
Experimental: (§2) Inhibition assays were conducted with selective CYP probes for each CYP enzyme at specific concentrations of substrate (close to its dissociation constant (Km) value). Compound 1 was a moderate inhibitor of CYP 1A2, 2B6 and 2C8; […]

[8] = target: CYP2B6 (Homo sapiens, UniProt P20813); assay: as above; assay type: in vitro ADME; design: from tissue; host or cells: human liver microsomes; details: CYP2B6, 100 μM Bupropion
CYP2B6, sequence (P20813 whole entry): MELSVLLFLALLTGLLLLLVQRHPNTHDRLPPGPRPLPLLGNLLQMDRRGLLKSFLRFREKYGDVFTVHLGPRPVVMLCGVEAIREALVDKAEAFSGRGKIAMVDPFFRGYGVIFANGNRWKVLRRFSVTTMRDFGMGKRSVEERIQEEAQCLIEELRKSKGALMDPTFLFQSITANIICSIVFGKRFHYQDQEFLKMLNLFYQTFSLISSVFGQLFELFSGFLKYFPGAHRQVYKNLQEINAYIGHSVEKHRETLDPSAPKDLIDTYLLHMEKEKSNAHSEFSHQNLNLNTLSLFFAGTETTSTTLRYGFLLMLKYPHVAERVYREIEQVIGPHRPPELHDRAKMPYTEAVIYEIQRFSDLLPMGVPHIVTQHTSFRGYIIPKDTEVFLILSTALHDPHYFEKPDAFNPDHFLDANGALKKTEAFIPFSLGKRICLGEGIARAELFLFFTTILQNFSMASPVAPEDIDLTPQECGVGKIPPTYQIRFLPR
Experimental: as §2

[9] = target: CYP2C19 (Homo sapiens, UniProt P33261); assay: as above; assay type: in vitro ADME; design: from tissue; host or cells: human liver microsomes; details: CYP2C19, 30 μM S-Mephenytoin
CYP2C19, sequence (P33261 whole entry): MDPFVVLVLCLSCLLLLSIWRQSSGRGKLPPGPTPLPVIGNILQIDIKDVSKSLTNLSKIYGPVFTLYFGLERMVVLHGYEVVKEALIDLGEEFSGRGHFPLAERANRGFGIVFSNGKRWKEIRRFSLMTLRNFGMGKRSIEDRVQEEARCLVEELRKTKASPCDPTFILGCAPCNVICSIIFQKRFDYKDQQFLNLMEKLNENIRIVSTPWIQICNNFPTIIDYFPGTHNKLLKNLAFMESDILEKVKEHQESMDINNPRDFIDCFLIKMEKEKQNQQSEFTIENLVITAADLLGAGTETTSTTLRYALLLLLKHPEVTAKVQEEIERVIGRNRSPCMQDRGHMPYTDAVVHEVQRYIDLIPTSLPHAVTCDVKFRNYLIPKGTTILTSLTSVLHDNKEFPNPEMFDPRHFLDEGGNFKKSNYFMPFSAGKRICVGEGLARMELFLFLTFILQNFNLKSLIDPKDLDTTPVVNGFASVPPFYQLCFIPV
Experimental: as §2

[10] = target: CYP2C8 (Homo sapiens, UniProt P10632); assay: as above; assay type: in vitro ADME; design: from tissue; host or cells: human liver microsomes; details: CYP2C8, 2.5 μM Paclitaxel
CYP2C8, sequence (P10632 whole entry): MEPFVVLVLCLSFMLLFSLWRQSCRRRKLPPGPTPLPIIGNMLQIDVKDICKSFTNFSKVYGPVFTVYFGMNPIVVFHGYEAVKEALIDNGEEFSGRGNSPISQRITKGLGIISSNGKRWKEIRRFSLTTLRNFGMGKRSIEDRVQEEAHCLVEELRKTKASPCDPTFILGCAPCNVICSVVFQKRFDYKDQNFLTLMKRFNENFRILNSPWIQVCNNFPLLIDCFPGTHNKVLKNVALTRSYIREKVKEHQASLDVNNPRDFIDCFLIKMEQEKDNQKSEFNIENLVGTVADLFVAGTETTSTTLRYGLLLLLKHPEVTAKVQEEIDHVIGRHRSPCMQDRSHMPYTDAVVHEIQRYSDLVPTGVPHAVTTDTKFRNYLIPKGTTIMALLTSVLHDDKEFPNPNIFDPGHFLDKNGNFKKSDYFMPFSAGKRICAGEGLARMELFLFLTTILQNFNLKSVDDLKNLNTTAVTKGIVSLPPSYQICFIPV
Experimental: as §2

[11] = target: CYP2C9 (Homo sapiens, UniProt P11712); assay: as above; assay type: in vitro ADME; design: from tissue; host or cells: human liver microsomes; details: CYP2C9, 2.5 μM Diclofenac
CYP2C9, sequence (P11712 whole entry): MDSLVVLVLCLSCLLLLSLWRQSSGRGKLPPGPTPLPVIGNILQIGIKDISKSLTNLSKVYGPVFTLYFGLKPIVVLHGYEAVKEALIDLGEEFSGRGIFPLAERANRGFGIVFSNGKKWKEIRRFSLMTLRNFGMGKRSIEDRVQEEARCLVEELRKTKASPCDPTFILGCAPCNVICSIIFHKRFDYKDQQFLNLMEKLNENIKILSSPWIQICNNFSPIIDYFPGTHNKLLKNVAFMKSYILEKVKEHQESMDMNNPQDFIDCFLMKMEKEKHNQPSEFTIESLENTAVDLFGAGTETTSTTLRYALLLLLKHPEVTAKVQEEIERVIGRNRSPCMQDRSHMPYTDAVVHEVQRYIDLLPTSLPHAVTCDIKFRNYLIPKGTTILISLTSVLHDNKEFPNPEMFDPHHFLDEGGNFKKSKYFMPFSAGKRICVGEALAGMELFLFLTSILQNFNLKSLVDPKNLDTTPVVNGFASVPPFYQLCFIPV
Experimental: as §2

[12] = target: CYP2D6 (Homo sapiens, UniProt P10635); assay: as above; assay type: in vitro ADME; design: from tissue; host or cells: human liver microsomes; details: CYP2D6, 10 μM Bufuralol
CYP2D6, sequence (P10635 whole entry): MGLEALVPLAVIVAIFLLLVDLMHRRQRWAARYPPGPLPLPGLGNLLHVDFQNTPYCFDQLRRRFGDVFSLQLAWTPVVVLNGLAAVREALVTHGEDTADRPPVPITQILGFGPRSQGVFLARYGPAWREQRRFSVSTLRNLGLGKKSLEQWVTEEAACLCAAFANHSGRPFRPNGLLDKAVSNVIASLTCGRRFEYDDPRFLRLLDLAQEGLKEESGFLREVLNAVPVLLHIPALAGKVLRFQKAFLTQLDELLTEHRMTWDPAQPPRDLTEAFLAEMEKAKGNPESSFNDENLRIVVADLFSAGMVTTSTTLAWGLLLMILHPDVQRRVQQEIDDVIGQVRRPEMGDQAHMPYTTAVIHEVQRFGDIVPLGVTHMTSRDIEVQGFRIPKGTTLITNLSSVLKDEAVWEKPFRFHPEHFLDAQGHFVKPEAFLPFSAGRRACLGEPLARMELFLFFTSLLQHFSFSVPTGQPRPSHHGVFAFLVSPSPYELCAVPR
Experimental: as §2

[13] = Rat, single IV bolus, 0.5 mg/kg nominal
[14] = plasma, Rat, single IV bolus, 0.5 mg/kg nominal

Q: With `Cc1cc(-c2cncc([C@@H](O)C(F)(F)F)c2)nc2c1C(=O)N(c1cnn(CC(F)F)c1)C2(C)C` [Compound 1, (R)-6-(1-(2,2-difluoroethyl)-1H-pyrazol-4-yl)-4,7,7-trimethyl-2-(5-(2,2,2-trifluoro-1-hydroxyethyl)pyridin-3-yl)-6,7-dihydro-5H-pyrrolo[3,4-b]pyridin-5-one] as the compound, how does the IC50 ([1]; THP-1, summary of cell assays, read-out: potency in PI3K-gamma associated cell assays) read?
A: 0.25 µM

Q: And the IC50 ([1]; THP-1/MCP-1/pAkt, PI3K-gamma dependent, read-out: IC50 Average ± Standard Deviation)?
A: 0.24 ± 0.07 µM

Q: And the IC50 [2]?
A: > 9.7 µM

Q: And the IC50 ([3]; MCF7, 96 h, MCF7 Proliferation, 96 hours, PI3K-alpha dependent, read-out: IC50 Avg +/− SD)?
A: > 17 µM

Q: What about the IC50 ([3]; MCF7, MCF7 Proliferation, footnote **, read-out: Individual assay data (IC50)) of the same compound?
A: 15.7 µM

Q: And the “selectivity over PI3K-alpha” value ([3]; MCF7 proliferation)?
A: > 67 fold

Q: What about the “PXR activation, response relative to positive control” value ([4]; 0.1-30 μM, Rifampicin positive control) of the same compound?
A: 5%

Q: And the EC50 ([4]; PXR activation)?
A: > 30 µM

Q: What about the “% HBF (hepatic blood flow)” value [5, 13] of the same compound?
A: ~3.6%

Q: And the DN_AUCINF [5, 13]?
A: 6200 ng·h/mL

Q: And the AUC(0-inf) [5, 14]?
A: 3100 ng·h/mL

Q: And the half-life [5, 14]?
A: 8.2 h

Q: And the clearance ([5]; plasma, Rat, single IV bolus, 0.5 mg/kg nominal, read-out: CL)?
A: 2.8 mL/min/kg

Q: And the Vd ([5]; plasma, Rat, single IV bolus, 0.5 mg/kg nominal, read-out: Vss)?
A: 1.8 L/kg

Q: And the AUC ([5]; plasma, Intravenous bolus, 0.5 mg/kg nominal dose, read-out: Rat IV AUC)?
A: 3100 ng·h/mL

Q: What about the AUC ([5]; plasma, Rat, single IV bolus, 0.5 mg/kg nominal, read-out: AUCALL) of the same compound?
A: 2690 ng·h/mL

Q: What about the “% HBF (hepatic blood flow)” value ([6]; Dog, 0.5 mg/kg nominal) of the same compound?
A: ~13%

Q: And the DN_AUCINF ([6]; Dog, 0.5 mg/kg nominal)?
A: 4000 ng·h/mL

Q: And the “% HBF (hepatic blood flow)” value ([6]; Monkey, 0.5 mg/kg nominal)?
A: ~26%

Q: And the DN_AUCINF ([6]; Monkey, 0.5 mg/kg nominal)?
A: 1500 ng·h/mL

Q: What about the DN_AUCINF ([6]; Mouse, 0.45 mg/kg nominal) of the same compound?
A: 3400 ng·h/mL

Q: What about the AUC ([6]; Dog, 0.5 mg/kg nominal) of the same compound?
A: 1900 ng·h/mL

Q: What about the AUC(0-inf) ([6]; Dog, 0.5 mg/kg nominal) of the same compound?
A: 2000 ng·h/mL

Q: And the clearance ([6]; Dog, 0.5 mg/kg nominal)?
A: 5.4 mL/min/kg

Q: What about the half-life ([6]; Dog, 0.5 mg/kg nominal) of the same compound?
A: 10.7 h

Q: And the Vd ([6]; Dog, 0.5 mg/kg nominal)?
A: 3.9 L/kg

Q: And the AUC ([6]; Monkey, 0.5 mg/kg nominal)?
A: 700 ng·h/mL

Q: And the AUC(0-inf) ([6]; Monkey, 0.5 mg/kg nominal)?
A: 740 ng·h/mL

Q: What about the clearance ([6]; Monkey, 0.5 mg/kg nominal) of the same compound?
A: 11.5 mL/min/kg

Q: What about the half-life ([6]; Monkey, 0.5 mg/kg nominal) of the same compound?
A: 6.6 h

Q: And the Vd ([6]; Monkey, 0.5 mg/kg nominal)?
A: 3.3 L/kg

Q: And the AUC ([6]; Mouse, 0.45 mg/kg nominal)?
A: 1090 ng·h/mL

Q: And the AUC(0-inf) ([6]; Mouse, 0.45 mg/kg nominal)?
A: 1530 ng·h/mL

Q: And the clearance ([6]; Mouse, 0.45 mg/kg nominal)?
A: 4.9 mL/min/kg

Q: And the half-life ([6]; Mouse, 0.45 mg/kg nominal)?
A: 4.3 h

Q: And the Vd ([6]; Mouse, 0.45 mg/kg nominal)?
A: 1.8 L/kg

Q: What about the IC50 [7] of the same compound?
A: 7 µM

Q: And the IC50 [8]?
A: 4 µM

Q: What about the IC50 [9] of the same compound?
A: 21 µM

Q: What about the IC50 [10] of the same compound?
A: 7 µM

Q: What about the IC50 [11] of the same compound?
A: 32 µM

Q: What about the IC50 [12] of the same compound?
A: 64 µM
